From patent EP0003892A1, “Beta-lactam compounds, processes for their production, compositions containing them and intermediates of use in their preparation” (GLAXO GROUP LIMITED, priority 1978, dated 1979)
≈ marks a conversion by molar mass, not a printed value. Read-outs that look alike come from different tables or passages of the source.

Tests used:
Experiment in all cases: Determination of Minimum Inhibitory Concentrations (MIC), agar dilution
Type in all cases: cell-based
E. cloacae 1321E = conditions: Enterobacter cloacae
Experimental: (§1) 1. Determination of Minimum Inhibitory Concentrations (MIC)
(§2) Serial two-fold dilutions of freshly prepared test solutions were made into Oxoid No. 1 Nutrient agar with or without added enrichment and poured into petri diches. Plates were inoculated with a multipoint inoculator with inoculum containing approximately […] of the organisms shown in the following Tables, all of which organisms are clinical isolates. The MIC, quoted in the Tables as µg/ml, was read after 18 hours incubation at 37°C as the lowest concentration which inhibited growth.

E. coli 851E = conditions: Escherichia coli
Experimental: as §1, §2

Pr. mirabilis 431E = conditions: Proteus mirabilis
Experimental: as §1, §2

H. influenzae 1184E = conditions: Haemophilus influenzae
Experimental: as §1, §2

Staph.aureus 853E = conditions: Staphylococcus aureus
Experimental: as §1, §2

E. cloacae 1051E = conditions: Enterobacter cloacae
Experimental: as §1, §2

K. aerogenes 1522E = conditions: Klebsiella aerogenes
Experimental: as §1, §2

Micrococcus Sp 1810E = conditions: SP1810E
Experimental: as §1, §2

MIC (E. cloacae 1321E; E. cloacae 1321E, clinical isolate, Oxoid No. 1 Nutrient agar, read after 18 hours incubation at 37°C, read-out: MIC) | MIC (E. coli 851E; E. coli 851E, clinical isolate, Oxoid No. 1 Nutrient agar, read after 18 hours incubation at 37°C, read-out: MIC) | MIC (Pr. mirabilis 431E; Pr. mirabilis 431E, clinical isolate, Oxoid No. 1 Nutrient agar, read after 18 hours incubation at 37°C, read-out: MIC) | MIC (H. influenzae 1184E; H. influenzae 1184E, clinical isolate, Oxoid No. 1 Nutrient agar, read after 18 hours incubation at 37°C, read-out: MIC) | MIC (Staph.aureus 853E; Staph.aureus 853E, clinical isolate, Oxoid No. 1 Nutrient agar, read after 18 hours incubation at 37°C, read-out: MIC) | MIC (E. cloacae 1051E; E. cloacae 1051E, clinical isolate, Oxoid No. 1 Nutrient agar, read after 18 hours incubation at 37°C, read-out: MIC) | MIC (K. aerogenes 1522E; K. aerogenes 1522E, clinical isolate, Oxoid No. 1 Nutrient agar, read after 18 hours incubation at 37°C, read-out: MIC) | MIC (Micrococcus Sp 1810E; Micrococcus Sp 1810E, clinical isolate, Oxoid No. 1 Nutrient agar, read after 18 hours incubation at 37°C, read-out: MIC) | Structure (SMILES) | MIC (E. cloacae 1321E; 1321E, 18 h) | MIC (E. coli 851E; 851E, 18 h) | MIC (Pr. mirabilis 431E; 431E, 18 h) | MIC (H. influenzae 1184E; 1184E, 18 h) | MIC (Staph.aureus 853E; 853E, 18 h) | MIC (E. cloacae 1051E; 1051E, 18 h) | MIC (K. aerogenes 1522E; 1522E, 18 h) | MIC (Micrococcus Sp 1810E; Micrococcus, 18 h)
 |  |  |  |  |  |  |  | CC(=O)SCCC1=C(C(=O)[O-])N2C(=O)CC2S1.[K+] (racemic) [Example 29, Potassium (5RS)-2-(2-acetylthioethyl)pen-2-em-3-carboxylate] | 1 µg/mL | 1 µg/mL | 1 µg/mL | 8 µg/mL | < 0.1 µg/mL | 16 µg/mL | 2 µg/mL | < 0.1 µg/mL
 |  |  |  |  |  |  |  | CCOC(=S)SCCC1=C(C(=O)[O-])N2C(=O)CC2S1.[K+] (racemic) [Example 36, Potassium (5RS)-2-(2-ethoxythiocarbonylthioethyl)pen-2-em-3-carboxylate] | 16 µg/mL | 8 µg/mL | 8 µg/mL | 4 µg/mL | < 0.1 µg/mL | 62 µg/mL | 16 µg/mL | < 0.1 µg/mL
31 µg/mL (≈ 97.3 µM) | 31 µg/mL (≈ 97.3 µM) | 16 µg/mL (≈ 50.2 µM) | 2 µg/mL (≈ 6.28 µM) | < 0.1 µg/mL | > 250 µg/mL | 31 µg/mL (≈ 97.3 µM) | < 0.1 µg/mL | CN(C)C(=S)SCCC1=C(C(=O)O)N2C(=O)CC2S1 (racemic) [Example 38, (5RS)-2-(2-N,N-Dimethylthiocarbamoylthioethyl)pen-2-em-3-carboxylic acid] |  |  |  |  |  |  |  | 
